Results from US20260232759A1, “PEPTIDES THAT INHIBIT INFECTION BY SARS-COV-2, THE VIRUS THAT CAUSES COVID-19 DISEASE” (Wisconsin Alumni Research Foundation, priority 2021, published 2026).
Like-named read-outs stand apart in the source and are kept apart here. Starred links: 1 amine or outer side, 2 acyl side, 3 side chain; linkers in the order of their positions; H or OH if unused. Non-standard residues stand in square brackets, D forms with d. Residues, ends and D or L forms follow the SMILES beside them. *: point of attachment. X2 = CC(C)CCC[C@@H](C)[C@H]1CC[C@H]2[C@@H]3CC=C4C[C@@H](OC(=O)CCOCCOCCOCCOCCNC(=O)C*)CC[C@]4(C)[C@H]3CC[C@]12C; X1 = O=C([C@H]1CNC[C@@H]1N[*:1])[*:2]; β3hE = N[C@@H](CCC(=O)O)CC(=O)O; β3hQ = NC(=O)CC[C@H](N)CC(=O)O; β3hD = NC(CC(=O)O)CC(=O)O

Legend:
[1] = Solubility of the peptides; type: physicochemical
SARS-CoV-2 S = molecular target: T1, SARS-CoV-2 S (Severe acute respiratory syndrome coronavirus 2, UniProt P0DTC2); experiment: β-Gal complementation-based cell-cell fusion assay (S-protein-mediated fusion)
T1 construct: expressed in transfected cells

[2] = IC50, inhibition of S-mediated fusion

Compound	solubility (in words) [1]	IC50 (SARS-CoV-2 S; [2])	other results
CC[C@H](C)[C@H](NC(=O)[C@H](C)NC(=O)[C@H](CCC(=O)O)NC(=O)[C@H](CCC(=O)O)NC(=O)[C@H](CC(C)C)NC(=O)[C@H](CCCCN)NC(=O)[C@H](CCCCN)NC(=O)[C@H](CCSC)NC(=O)[C@H](CCC(=O)O)NC(=O)[C@H](Cc1ccc(O)cc1)NC(=O)[C@H](CCC(=O)O)NC(=O)[C@H](CC(C)C)NC(=O)[C@H](CC(=O)O)NC(=O)[C@H](CC(C)C)NC(=O)[C@H](Cc1ccccc1)NC(=O)[C@@H](NC(=O)[C@@H](NC(=O)[C@H](CC(N)=O)NC(=O)[C@@H](NC(=O)[C@H](CCC(N)=O)NC(=O)[C@H](CC(=O)O)NC(=O)[C@H](CC(C)C)NC(=O)[C@@H](N)CO)[C@@H](C)CC)C(C)C)[C@@H](C)O)C(=O)N[C@@H](CCCCN)C(=O)N[C@@H](CCCCN)C(=O)N[C@@H](CC(C)C)C(=O)N[C@@H](CCC(=O)O)C(=O)N[C@@H](CCC(=O)O)C(=O)N[C@@H](CO)C(=O)N[C@@H](Cc1ccc(O)cc1)C(=O)N[C@H](C(=O)N[C@@H](CC(=O)O)C(=O)N[C@@H](CC(C)C)C(=O)N[C@@H](CCCCN)C(=O)N[C@@H](CCC(=O)O)C(=O)N[C@@H](CC(C)C)C(N)=O)[C@@H](C)CC [EK1]	improved solubility	–	–
Ac-DISQINASVVNIEYEI[X1]KLE[β3hE]VA[X1]KLE[β3hE]SLIDLQELGSGSGC(X2)-NH2 [Bf APC/B3E]	–	–	IC50 (SARS-CoV-2 S; […], cell-cell fusion assay, peptides with poly(ethylene glycol)-cholesterol tail, read-out: IC50, inhibition of S-mediated fusion): ~50 nM
Ac-[β3hD]IS[β3hQ]INASVVNIEYEIKKLEEVAKKLEESLI[β3hD]L[β3hQ]ELGSGSGC(X2)-NH2 [D1 Q4 D32 Q34]	–	~10 nM	–
Ac-[β3hD]IS[β3hQ]INASVVNIEYEIKKLEEVAKKLEESLI[β3hD]LQ[β3hE]LGSGSGC(X2)-NH2 [D1 Q4 D32 E35]	–	~50 nM	–
CC[C@H](C)[C@H](NC(=O)[C@H](CCC(N)=O)NC(=O)[C@H](CO)NC(=O)[C@@H](NC(=O)[C@@H](N)CC(=O)O)[C@@H](C)CC)C(=O)N[C@@H](CC(N)=O)C(=O)N[C@@H](C)C(=O)N[C@@H](CO)C(=O)N[C@H](C(=O)N[C@H](C(=O)N[C@@H](CC(N)=O)C(=O)N[C@H](C(=O)N[C@@H](CCC(=O)O)C(=O)N[C@@H](Cc1ccc(O)cc1)C(=O)N[C@@H](CCC(=O)O)C(=O)N[C@H](C(=O)N[C@@H](CCCCN)C(=O)N[C@@H](CCCCN)C(=O)N[C@@H](CC(C)C)C(=O)N[C@@H](CCC(=O)O)C(=O)N[C@@H](CCC(=O)O)C(=O)N[C@H](C(=O)N[C@@H](C)C(=O)N[C@@H](CCCCN)C(=O)N[C@@H](CCCCN)C(=O)N[C@@H](CC(C)C)C(=O)N[C@@H](CCC(=O)O)C(=O)N[C@@H](CCC(=O)O)C(=O)N[C@@H](CO)C(=O)N[C@@H](CC(C)C)C(=O)N[C@H](C(=O)N[C@@H](CC(=O)O)C(=O)N[C@@H](CC(C)C)C(=O)N[C@@H](CCC(N)=O)C(=O)N[C@@H](CCC(=O)O)C(=O)N[C@@H](CC(C)C)C(N)=O)[C@@H](C)CC)C(C)C)[C@@H](C)CC)[C@@H](C)CC)C(C)C)C(C)C [Peptide 1] (H-DISQINASVVNIEYEIKKLEEVAKKLEESLIDLQEL-NH2; N-terminus and C-terminus assumed)	improved solubility	–	–
